This note sets out measurements from paper PMC11347161, “Sequence diversity of apidaecin-like peptides arresting the terminating ribosome” (Nucleic Acids Research, 2024).

The experiment relates to E. coli, BL21 cells. It is filed as cell-based. The conditions noted are these: E. coli BL21, broth microdilution, conducted in triplicate; for MIC, TSB: 33% TSB medium; for MIC, LB: LB medium; for MIC, RPMI/Serum: RPMI/Serum medium (RPMI-1640:MHB:FBS = 100:5:20). On the procedure:
The E. coli strain CA244 (lacZ125(Am), e14-, trpA49(Am), relA1, spoT1) was obtained from Escherichia coli Genetic Stock Center. The E. coli BL21(DE3) electrocompetent cells were from Sigma. The following media and components were implemented for bacteria growth: lysogeny broth (LB), minimal M9 medium, Tryptic Soy Broth (TSB), Roswell Park Memorial Institute medium 1640 (RPMI-1640), Mueller Hinton Broth (MHB), Fetal Bovine Serum (FBS). For various experiments E. coli cells were grown either in LB, in 33% TSB ([21]), in M9 medium supplemented with 1% Glycerol, 1 mM MgSO4, 0.1 mM CaCl2 and 10 μg/ml thiamine, or in RPMI/Serum (RPMI-1640:MHB:FBS = 100:5:20) ([23]).
The minimal inhibitory concentration (MIC) test was performed using the broth microdilution method, adapted from the previously described procedure ([28]). The MIC tests were conducted in triplicate either in LB, 33% TSB or RPMI/Serum media.
In order to quantitatively assess the antimicrobial activity of the synthesized peptides identified by both, the negative and positive selection strategies, we determined their minimal inhibitory concentrations (MICs) for the E. coli BL21 cells in three different media: LB, as a standard laboratory medium, 33% TSB, as a medium in which PrAMPs show increased antibacterial properties ([21]), and in the more therapeutically relevant RPMI/serum media ([23]) (Table 1). […] It appears, therefore, that the positive selection strategy is more prone to identifying biologically active peptides in comparison with the negative selection approaches. Furthermore, it became apparent that some multiple substitutions can even improve the antibacterial properties of the Api-like peptides.
(In general: In broth dilution the organism is exposed to a series of concentrations in liquid medium.)

Residues, ends and D or L forms follow the SMILES beside them. No end group written: not given here. *: point of attachment. Orn(α-tetramethylguanidino) = CN(C)C(=N[C@@H](CCCN)C(=O)*)N(C)C Where only a bound is given, the exact number is not on record here.

Consider GNNRPVYIPKPRPPYPRK [Peptide K10Y15K18], for which the “MIC, TSB” value was found to be 2 µM; the “MIC, LB” value came to 8 µM; the “MIC, RPMI/Serum” value amounted to 2 µM.
As to `CC[C@H](C)[C@H](NC(=O)[C@H](Cc1ccc(O)cc1)NC(=O)[C@@H](NC(=O)[C@@H]1CCCN1C(=O)[C@H](CCCNC(=N)N)NC(=O)[C@H](CC(N)=O)NC(=O)[C@H](CC(N)=O)NC(=O)[C@H](CCCN)N=C(N(C)C)N(C)C)C(C)C)C(=O)NCC(=O)N[C@@H](CCC(=O)O)C(=O)N1CCC[C@H]1C(=O)N[C@@H](CCCNC(=N)N)C(=O)N1CCC[C@H]1C(=O)N1CCC[C@H]1C(=O)N[C@@H](CC(N)=O)C(=O)N1CCC[C@H]1C(=O)N[C@@H](CCCNC(=N)N)C(=O)N[C@@H](CC(C)C)C(=O)O` [Peptide G9E10N15] ({Orn(α-tetramethylguanidino)}-NNRPVYIGEPRPPNPRL-OH; C-terminus assumed), the “MIC, TSB” value was more than 64 µM; the “MIC, LB” value is more than 64 µM; the “MIC, RPMI/Serum” value is more than 64 µM.
Turning to `CC[C@H](C)[C@H](NC(=O)[C@H](Cc1ccc(O)cc1)NC(=O)[C@@H](NC(=O)[C@@H]1CCCN1C(=O)[C@H](CCCNC(=N)N)NC(=O)[C@H](CC(N)=O)NC(=O)[C@H](CCCCN)NC(=O)[C@H](CCCN)N=C(N(C)C)N(C)C)C(C)C)C(=O)N[C@@H](CC(N)=O)C(=O)N[C@@H](CCC(N)=O)C(=O)N1CCC[C@H]1C(=O)N[C@@H](CCCNC(=N)N)C(=O)N[C@@H](CCC(=O)O)C(=O)N1CCC[C@H]1C(=O)N[C@@H](Cc1c[nH]cn1)C(=O)N1CCC[C@H]1C(=O)N[C@@H](CCCNC(=N)N)C(=O)N[C@@H](CC(C)C)C(=O)O` [Peptide K2N9E13] ({Orn(α-tetramethylguanidino)}-KNRPVYINQPREPHPRL-OH; C-terminus assumed), the “MIC, TSB” value is more than 64 µM; the “MIC, LB” value was more than 64 µM; the “MIC, RPMI/Serum” value was more than 64 µM.
For the molecule GNNRPVCAPQPAWPTGRL [C7A8A12W13T15G16], the “MIC, TSB” value is more than 64 µM; the “MIC, LB” value is more than 64 µM; the “MIC, RPMI/Serum” value was more than 64 µM.
On to `CC(C)C[C@H](NC(=O)[C@H](CCCNC(=N)N)NC(=O)[C@@H]1CCCN1C(=O)[C@H](Cc1c[nH]c2ccccc12)NC(=O)[C@@H]1CCCN1C(=O)[C@@H]1CCCN1C(=O)[C@H](CCCNC(=N)N)NC(=O)[C@@H]1CCCN1C(=O)[C@H](CCC(N)=O)NC(=O)[C@@H]1CCCN1C(=O)[C@H](CC(=O)O)NC(=O)[C@H](CC(N)=O)NC(=O)[C@@H](NC(=O)[C@H](CCCNC(=N)N)NC(=O)[C@H](CCCNC(=N)N)NC(=O)[C@H](CC(N)=O)NC(=O)[C@H](CC(N)=O)NC(=O)[C@H](CCCN)N=C(N(C)C)N(C)C)[C@@H](C)O)C(=O)O` [Peptide R5T6N7D8W15] ({Orn(α-tetramethylguanidino)}-NNRRTNDPQPRPPWPRL-OH; C-terminus assumed), for which the “MIC, TSB” value was more than 64 µM; the “MIC, LB” value is more than 64 µM; the “MIC, RPMI/Serum” value is more than 64 µM.
GNRRPVYIPVPRPPYPRL [Peptide R3V10Y15]: the “MIC, TSB” value was determined as 2 µM; the “MIC, LB” value came out at 8 µM; the “MIC, RPMI/Serum” value is 2 µM.
As to GYNRPAYIPRPRPPHPRR [Peptide Y2A6R10R18], the “MIC, TSB” value came to 1 µM; the “MIC, LB” value was determined as 4 µM; the “MIC, RPMI/Serum” value is 0.5 µM.
